Where no end group is shown, it is not given here.
Assays:
C. albicans, strain 820 = assay: radial diffusion assay in agarose gels, C. albicans; format: cell-based; settings: for inhibitory activity against C. albicans (FIG. 4c): result in words; for minimal microbicidal concentration: Target C. albicans
Procedure: (§1) Aliquots (66 μl ) of each fraction were dried by vacuum centrifugation, and resuspended in approximately 6.6 μl of 0.01% acetic acid. Five μl samples of this concentrate were tested for antimicrobial activity against E. coli ML-35, L. monocytogenes, Strain EGD and C. albicans, strain 820 by radial diffusion and gel overlay techniques (Lehrer, R. I. et al. J Immunol Meth (1991) 137:167-173). Active fractions were further examined by acid-urea PAGE and SDS-PAGE. Prophenins emerged from the P10 column in fractions 38-43 (39.6 ml total volume), which contained a total of 18 mg protein BCA analysis.
(§2) The radial diffusion assay in agarose gels as described above was also used to test the activity of the purified prophenins. Samples of 5 μL each were added to 3 mm wells in thin gels composed of 10 mM sodium phosphate, 30 mg/ml trypticase soy broth powder in 1% agarose and containing approximately 4×10^5 CFU/ml of mid-log phase organisms. After allowing 3 hours for the samples to diffuse into the underlayer gel, a nutrient-rich overlay gel was poured and the plates were incubated for 24 hours at 37° C. to allow surviving organisms to form microcolonies. The diameters of the clear zones were measured and expressed in "units" (10 units=1 mm) as described previously.

E. coli ML-35 = assay: radial diffusion assay in agarose gels, E. coli; format: cell-based; settings: for minimal microbicidal concentration: Target E. coli
Procedure: as §1, §2

[1] = tested on: L. monocytogenes, Strain EGD; assay: radial diffusion assay in agarose gels, L. monocytogenes; format: cell-based; settings: Target L. monocytogenes
Procedure: as §1, §2

[2] = tested on: lipid polysaccharide (LPS) of the Gram-negative bacterium E. coli strain 0.55B5; assay: Limulus amebocyte lysate (LAL) test for endotoxin binding; format: biochemical; set-up: key to LPS-induced gel formation of E-TOXATE (Table 3): ++: a solid gel (no inhibition); +: increased viscosity without solid gel formation (partial inhibition); 0: gelation was absent (complete inhibition); settings: for LPS-induced gel formation of E-TOXATE (Table 3): 60 minutes at 37° C.
Procedure: The prophenins of the invention were tested for their ability to bind the lipid polysaccharide (LPS) of the Gram-negative bacterium E. coli strain 0.55B5. The assay was the Limulus amebocyte lysate (LAL) test for endotoxins conducted in the presence and absence of the test compounds. The test was conducted using the procedure described in Sigma Technical Bulletin No. 210 as revised in Dec. 1992 and published by Sigma Chemical Company, St. Louis, Mo.
The LAL test is based on the ability of LPS to effect gelation in the commercial reagent E-TOXATE™ which is prepared from the lysate of circulating amebocytes of the Horseshoe Crab Limulus polyphemus. As described in the technical bulletin, when exposed to minute quantities of LPS, the lysate increases in opacity as well as viscosity and may gel or clot depending on the concentration of endotoxin. The technical bulletin goes on to speculate that the mechanism appears analogous to the clotting of mammalian blood and involves the steps of activation of a trypsin-like preclotting enzymes by the LPS in the presence of calcium ion, followed by enzymic modifications of a "coagulogen" by proteolysis to produce a clottable protein. These steps are believed tied to the biologically active or "pyrogenic" portion of the molecule. It has been shown previously that detoxified LPS (or endotoxin) gives a negative LAL test.
In the assay, the amounts of prophenin-1 and polymyxin B (78% free polymyxin, Sigma) were preincubated in a final volume of 0.2 ml and the test mixtures contained LPS at a final concentration of 0.05 endotoxin unit/ml and E-TOXATE™ at the same concentration. The test compounds were incubated together with the LPS for 15 minutes before the E-TOXATE™ was added to a final volume (after E-TOXATE™ addition) of 0.2 ml. The tubes were then incubated for 60 minutes at 37° C. and examined for the formation of a gel.

Substance: HNP-1: human defensin (HNP-1), control
- inhibitory activity against C. albicans (FIG. 4c) (C. albicans, strain 820): substantially noninhibitory

Substance: HNP-2: column head of Table 2; probably the human defensin control named HNP-1 in the text (CYCRIPACIAGERRYGTCIYQGRLWAFCC; ends and bridges not checked; cysteine pairing not given here; UniProt P59665 66-94, looked up)
- minimal microbicidal concentration (C. albicans, strain 820): > 150 µg/mL
- minimal microbicidal concentration (E. coli ML-35): 80.0 µg/mL
- minimal microbicidal concentration [1]: 12.0 µg/mL

Substance: PG-3: protegrin-3 (PG3), control (RGGGLCYCRRRFCVCVGR; ends and bridges not checked; cysteine pairing not given here; UniProt P32196 131-148, looked up)
- minimal microbicidal concentration (C. albicans, strain 820): 6.9 µg/mL
- inhibitory activity against C. albicans (FIG. 4c) (C. albicans, strain 820): successful antifungals
- minimal microbicidal concentration (E. coli ML-35): 8.6 µg/mL
- inhibitory activity against E. coli ML-35 (FIG. 4a) (E. coli ML-35; result in words): more inhibitory than HNP-1
- minimal microbicidal concentration [1]: 9.0 µg/mL

Substance: Polymyxin B
- concentration giving complete inhibition of gelation ([2]; LAL test, LPS 0.05 endotoxin unit/ml): 5 µg/mL
- concentration giving complete inhibition of gelation, molar ([2]; LAL test, converted from μg/ml): ≈ 4.2 μM
- LPS-induced gel formation of E-TOXATE (Table 3) ([2]; peptide 0.16 μg/ml, LPS 0.05 endotoxin unit/ml): ++
- LPS-induced gel formation of E-TOXATE (Table 3) ([2]; peptide 0.31 μg/ml, LPS 0.05 endotoxin unit/ml): ++
- LPS-induced gel formation of E-TOXATE (Table 3) ([2]; peptide 0.63 μg/ml, LPS 0.05 endotoxin unit/ml): ++
- LPS-induced gel formation of E-TOXATE (Table 3) ([2]; peptide 1.25 μg/ml, LPS 0.05 endotoxin unit/ml): ++
- LPS-induced gel formation of E-TOXATE (Table 3) ([2]; peptide 2.5 μg/ml, LPS 0.05 endotoxin unit/ml): +
- LPS-induced gel formation of E-TOXATE (Table 3) ([2]; peptide 5.0 μg/ml, LPS 0.05 endotoxin unit/ml): 0
- LPS-induced gel formation of E-TOXATE (Table 3) ([2]; peptide 10.0 μg/ml, LPS 0.05 endotoxin unit/ml): 0
